Assay in all cases: NCI-60 cell line screen, 48 h
Experiment [1] has as its system A549 NSCLC.
Experiment [2] has as its system EKVX NSCLC.
For experiment [3], the system named is HCC-2998 colon.
Experiment [4] relates to HCT-15 colon.
The subject of experiment [5] is HT29 colon.
Experiment [6] relates to IGROV1 ovarian.
In experiment [7] the test system is RPMI-8226 leukemia.
Experiment [8] has as its system SF-295 CNS.
The subject of experiment [9] is SR leukemia.
Experiment [10] relates to TK-10 renal.

Several values for one entry are separate records, joined by “and”; a condition that tells them apart may be missing. Equal values may be shown once.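 Method: 48-hour compound exposure of cells in 96-well plates, five concentrations, linear interpolation of endpoints. GI50: concentration for 50% inhibition of growth. TGI is the concentration that stops growth completely.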

As for `Cc1nc(-c2cnc(NC(C)C)n(C)c2=O)ccc1Oc1ccnc(-c2cnn(C)c2)c1`, the GI50 in [1] is 15 µM; in experiment [2] it was 10.4 µM; in experiment [3], 24 µM; in experiment [4], 5.51 µM; in experiment [5], 5.28 µM; in experiment [6], 15 µM. For the same molecule, the GI50 in experiment [7] was 8.49 µM; in [8] it was 9.14 µM; in experiment [9], 2.99 µM; in experiment [10], 16 µM. The TGI was greater than 100 µM in experiment [1]; 99.7 µM in experiment [2]; greater than 100 µM in experiment [3]; greater than 100 µM in experiment [4]; 68 µM in experiment [5]; greater than 100 µM in experiment [6]. For the same molecule, the TGI in experiment [7] turned out to be 81.7 µM; in experiment [8] it was 90.3 µM; in [9], 29.1 µM; in experiment [10], 75.4 µM.

Consider `C/C(=N\n1c(O)c(C#N)cc(C#N)c1=O)c1ccncc1`, for which the GI50 in experiment [1], in [2], in experiment [3], in [4], in experiment [5] and in [6] was greater than 100 µM in each case. Further, the GI50 in experiment [7], in [8], in experiment [9] and in experiment [10] was greater than 100 µM throughout. Moreover, the TGI in experiment [1], in [2], in experiment [3], in experiment [4], in [5] and in experiment [6] was greater than 100 µM throughout. For the same molecule, the TGI in experiment [7], in experiment [8], in experiment [9] and in [10] was greater than 100 µM throughout.

Consider `COC(=O)C1C(=O)O[C@@H](c2ccc(OC)c(OC)c2OC)C1C(=O)OC` (mixture of isomers), for which the TGI in [1], in experiment [2], in experiment [3], in experiment [4], in experiment [5] and in experiment [6] was greater than 100 µM in each case. The TGI in experiment [7], in [8], in experiment [9] and in [10] was greater than 100 µM each time.

On to `CCCCCCCCCC(CCCC(O)CC(=O)O)OC1OC(COC2OC(C)C(OC(C)=O)C(O)C2O)C(O)C(O)C1OC1OC(CO)C(O)C(O)C1OC1OC(C)C(OC(=O)CC(C)C)C(O)C1O` (stereo not given), for which the GI50 in [1], in experiment [2], in [3], in experiment [4], in [5] and in [6] was greater than 35 µM each time. Moreover, the GI50 in [7], in experiment [8], in experiment [9] and in [10] was greater than 35 µM throughout. Besides, the TGI in experiment [1], in experiment [2], in experiment [3], in experiment [4], in experiment [5] and in experiment [6] was greater than 35 µM each time. The TGI in experiment [7], in experiment [8], in experiment [9] and in [10] was greater than 35 µM in each case.

In the case of `CN(C)C(=O)NC(=S)N(C)C`, the TGI in experiment [1], in [2], in experiment [3], in experiment [4], in experiment [5] and in experiment [6] was greater than 100 µM throughout. Moreover, the TGI in experiment [7], in experiment [8], in experiment [9] and in [10] was greater than 100 µM in each case.

For `COc1ccc2nc3cc([N+](=O)[O-])ccc3c(NNc3ccccc3)c2c1`, the TGI in [1] was 37.8 µM and > 100 µM; in experiment [2] it was > 100 µM and 71.8 µM; in experiment [3], 46.3 µM; in experiment [4], > 100 µM and 67.2 µM; in [5] it was 29.9 µM and 39.2 µM; in experiment [6] it was 68.6 µM and 27.9 µM. Also, the TGI in [7] is 46.7 µM and > 73.3 µM; in experiment [8], 25.2 µM and > 100 µM; in [9], 61.8 µM; in experiment [10], 30 µM and > 100 µM. In addition, the GI50 in [4] was 12 µM; in experiment [6], 15.4 µM; in [7], 4.8 µM; in experiment [8], 6.73 µM; in experiment [10], 12.1 µM.

Consider `O=CNc1ccc(S(=O)(=O)c2ccc(NC=O)cc2)cc1`, for which the TGI in [1], in [2], in experiment [3], in experiment [4], in experiment [5] and in [6] was greater than 100 µM throughout. In addition, the TGI in experiment [7], in [8], in experiment [9] and in experiment [10] was greater than 100 µM each time.

Take `O=C(CO[N+](=O)[O-])OC/C=C/c1ccccc1`: the TGI in experiment [1], in experiment [2], in [3], in [4], in [5] and in experiment [6] was greater than 100 µM in each case. The TGI in experiment [7], in experiment [8], in [9] and in experiment [10] was greater than 100 µM each time.

For the molecule `COc1ccc(-c2ccccc2)c2[nH]c3c(c12)CCNC3=O`, the TGI in experiment [1], in experiment [2], in experiment [3], in experiment [4], in [5] and in [6] was greater than 100 µM throughout. In addition, the TGI in experiment [7], in experiment [8], in experiment [9] and in [10] was greater than 100 µM in each case.

These data come from PubChem BioAssay (NCI).
